C[n+]1ccn(CCOCCn2cc[n+](C)c2)c1.F[P-](F)(F)(F)(F)F.F[P-](F)(F)(F)(F)F
solubility (mole fraction)
Conditions	in acetone	in acetonitrile	in ethanol	in methanol	in water
283 K	0.0599	0.0726	3.2e-05	0.000171	0.000118
288 K	0.061	0.0749	3.8e-05	0.000234	0.000157
293 K	0.0621	0.0775	4.7e-05	0.000298	0.00021
298 K	0.0631	0.0802	5.6e-05	0.000376	0.000271
303 K	0.0641	0.0834	6.9e-05	0.000464	0.000345

— BigSolDB 2.1
